US12084434B2 (Scorpion Therapeutics, Inc., priority 2021, dated 2024)

System: T47D pAKT (S473), PI3Kα H1047R mutation present
Experiment: HTRF pAKT-T47D;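 also: assay medium was RPMI with 10% FBS and 0.2 units/ml bovine insulin, without phenol red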
Conditions: Homo sapiens, T47D, 1 h, read-out: T47D pAKT IC50 (nM), T47D.1 cells, pAKT (S473) HTRF, 1 hour

Compound | IC50
Cc1c(C(NC(=O)Nc2cnc(N)nc2)C(F)(F)F)oc2c(Br)cc(F)cc12 (single isomer, unassigned) [Compound 215, 1-(2-aminopyrimidin-5-yl)-3-[1-(7-bromo-5-fluoro-3-methyl-1-benzofuran-2-yl)-2,2,2-trifluoroethyl]urea] | 1000 to 5000 nM
CNC(=O)c1ncc(NC(=O)N[C@H](c2oc3ccc(F)cc3c2C)C(C)C)cn1 [Compound 77, (S)-5-(3-(1-(5-fluoro-3-methylbenzofuran-2-yl)-2-methylpropyl)ureido)-N-methylpyrimidine-2-carboxamide] | 1000 to 5000 nM
Cc1c([C@@H](NC(=O)Nc2cnc(C(N)=O)nc2)C(C)C)oc2ccc(F)cc12 [Compound 78, (S)-5-(3-(1-(5-fluoro-3-methylbenzofuran-2-yl)-2-methylpropyl)ureido)pyrimidine-2-carboxamide] | 1000 to 5000 nM
Cc1c([C@@H](NC(=O)Nc2cnc(N)nc2)C2(F)CC2)oc2ccc(F)cc12 [Compound 81, (R)-1-(2-aminopyrimidin-5-yl)-3-((5-fluoro-3-methylbenzofuran-2-yl)(1-fluorocyclopropyl)methyl)urea] | < 1000 nM
Cc1c([C@@H](NC(=O)Nc2cnc(N)nc2)C2(C)CC2)oc2ccc(F)cc12 [Compound 84, (S)-1-(2-aminopyrimidin-5-yl)-3-((5-fluoro-3-methylbenzofuran-2-yl)(1-methylcyclopropyl)methyl)urea] | < 1000 nM
Cc1c([C@@H](NC(=O)Nc2ncc(N)cn2)C(C)(C)C)oc2ccc(F)cc12 [Compound 86, (S)-1-(5-aminopyrimidin-2-yl)-3-(1-(5-fluoro-3-methylbenzofuran-2-yl)-2,2-dimethylpropyl)urea] | < 1000 nM
Cc1c([C@@H](NC(=O)Nc2cnc(N3CC(O)C3)nc2)C(C)C)oc2ccc(F)cc12 [Compound 87, (S)-1-(1-(5-fluoro-3-methylbenzofuran-2-yl)-2-methylpropyl)-3-(2-(3-hydroxyazetidin-1-yl)pyrimidin-5-yl)urea] | < 1000 nM
Cc1c([C@@H](NC(=O)Nc2cnc(N3CC(O)C3)nc2)C(F)(F)F)oc2ccc(F)cc12 [Compound 89, (R)-1-(2-(3-hydroxyazetidin-1-yl)pyrimidin-5-yl)-3-(2,2,2-trifluoro-1-(5-fluoro-3-methylbenzofuran-2-yl)ethyl)urea] | < 1000 nM
Cc1c([C@@H](NC(=O)Nc2cnc(N3CC(F)C3)nc2)C(F)(F)F)oc2ccc(F)cc12 [Compound 95, (R)-1-(2-(3-fluoroazetidin-1-yl)pyrimidin-5-yl)-3-(2,2,2-trifluoro-1-(5-fluoro-3-methylbenzofuran-2-yl)ethyl)urea] | < 1000 nM

Further lines, results first:

IC50 | Compound
1000 to 5000 nM | Cc1c(C(NC(=O)Nc2cnc(N)nc2)C(F)(F)F)oc2c(C#N)cc(F)cc12 (single isomer, unassigned) [Compound 219, 1-(2-aminopyrimidin-5-yl)-3-[1-(7-cyano-5-fluoro-3-methyl-1-benzofuran-2-yl)-2,2,2-trifluoroethyl]urea]
1000 to 5000 nM | Cc1c(C(NC(=O)Nc2ccc(N)cc2)C(F)(F)F)oc2c(F)cc(F)cc12 (single isomer, unassigned) [Compound 221, 1-(4-aminophenyl)-3-(1-(5,7-difluoro-3-methylbenzofuran-2-yl)-2,2,2-trifluoroethyl)urea]
< 1000 nM | Cc1c(C(NC(=O)Nc2cnc(N3CCC3)nc2)C(F)(F)F)oc2c(F)cc(F)cc12 (single isomer, unassigned) [Compound 223, 1-(2-(azetidin-1-yl)pyrimidin-5-yl)-3-(1-(5,7-difluoro-3-methylbenzofuran-2-yl)-2,2,2-trifluoroethyl)urea]
1000 to 5000 nM | Cc1c(C(NC(=O)Nc2cnc(N3CC(F)C3)nc2)C(F)(F)F)oc2c(F)cc(F)cc12 (single isomer, unassigned) [Compound 225, 1-(1-(5,7-difluoro-3-methylbenzofuran-2-yl)-2,2,2-trifluoroethyl)-3-(2-(3-fluoroazetidin-1-yl)pyrimidin-5-yl)urea]

Same assay, conditions: read-out: T47D pAKT IC50; T47D.1 cells, pAKT (S473) HTRF, 1 hour

Compound | IC50
Cc1c(C(NC(=O)Nc2cnc(N3CC(C)(O)C3)nc2)C(F)(F)F)oc2c(Cl)cc(F)cc12 (single isomer, unassigned) [Compound 202, 1-(1-(7-chloro-5-fluoro-3-methylbenzofuran-2-yl)-2,2,2-trifluoroethyl)-3-(2-(3-hydroxy-3-methylazetidin-1-yl)pyrimidin-5-yl)urea] | < 1000 nM
Cc1c(C(NC(=O)Nc2cnc(N)nc2)C(F)(F)F)oc2c(C)cc(F)cc12 (single isomer, unassigned) [Compound 213, 1-(2-aminopyrimidin-5-yl)-3-[2,2,2-trifluoro-1-(5-fluoro-3,7-dimethyl-1-benzofuran-2-yl)ethyl]urea] | > 5000 nM
Cc1c(C(NC(=O)Nc2cnc(N)nc2)C(F)(F)F)oc2c(C)cc(F)cc12 (single isomer, unassigned) [Compound 214, 1-(2-aminopyrimidin-5-yl)-3-[2,2,2-trifluoro-1-(5-fluoro-3,7-dimethyl-1-benzofuran-2-yl)ethyl]urea] | < 1000 nM
Cc1c(C(NC(=O)Nc2cnc(N)nc2)C(F)(F)F)oc2c(Br)cc(F)cc12 (single isomer, unassigned) [Compound 216, 1-(2-aminopyrimidin-5-yl)-3-[1-(7-bromo-5-fluoro-3-methyl-1-benzofuran-2-yl)-2,2,2-trifluoroethyl]urea] | < 1000 nM

Now from value to compound:

IC50 | Compound
> 5000 nM | Cc1c(C(NC(=O)Nc2cnc(N)nc2)C(F)(F)F)oc2c(C3CC3)cc(F)cc12 (single isomer, unassigned) [Compound 217, 1-(2-aminopyrimidin-5-yl)-3-[1-(7-cyclopropyl-5-fluoro-3-methyl-1-benzofuran-2-yl)-2,2,2-trifluoroethyl]urea]
< 1000 nM | Cc1c(C(NC(=O)Nc2cnc(N)nc2)C(F)(F)F)oc2c(C3CC3)cc(F)cc12 (single isomer, unassigned) [Compound 218, 1-(2-aminopyrimidin-5-yl)-3-[1-(7-cyclopropyl-5-fluoro-3-methyl-1-benzofuran-2-yl)-2,2,2-trifluoroethyl]urea]
< 1000 nM | Cc1c(C(NC(=O)Nc2cnc(N)nc2)C(F)(F)F)oc2c(C#N)cc(F)cc12 (single isomer, unassigned) [Compound 220, 1-(2-aminopyrimidin-5-yl)-3-[1-(7-cyano-5-fluoro-3-methyl-1-benzofuran-2-yl)-2,2,2-trifluoroethyl]urea]
< 1000 nM | Cc1c(C(NC(=O)Nc2ccc(N)cc2)C(F)(F)F)oc2c(F)cc(F)cc12 (single isomer, unassigned) [Compound 222, 1-(4-aminophenyl)-3-(1-(5,7-difluoro-3-methylbenzofuran-2-yl)-2,2,2-trifluoroethyl)urea]
1000 to 5000 nM | Cc1c(C(NC(=O)Nc2cnc(N3CCC3)nc2)C(F)(F)F)oc2c(F)cc(F)cc12 (single isomer, unassigned) [Compound 224, 1-(2-(azetidin-1-yl)pyrimidin-5-yl)-3-(1-(5,7-difluoro-3-methylbenzofuran-2-yl)-2,2,2-trifluoroethyl)urea]
< 1000 nM | Cc1c(C(NC(=O)Nc2cnc(N3CC(F)C3)nc2)C(F)(F)F)oc2c(F)cc(F)cc12 (single isomer, unassigned) [Compound 226, 1-(1-(5,7-difluoro-3-methylbenzofuran-2-yl)-2,2,2-trifluoroethyl)-3-(2-(3-fluoroazetidin-1-yl)pyrimidin-5-yl)urea]
